Laboratory results published in ChEMBL document CHEMBL1201862, “PubChem BioAssay data set” (2004).
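Exposure lasted 48 hours, with cells grown in 96-well plates and compounds tested at five concentrations. Abbreviation: GI50, concentration required for 50% inhibition of growth.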 Activity calls are given as the source filed them. Cut-off read from the data, not from the text of the source: active = GI50 up to about 1.1 µM and inactive = higher.

What was measured:
Experiment in all cases: NCI-60 cell line screen, 48 h
PC-3 = test system: PC-3
MCF7 = test system: MCF7
DMS-273 = test system: DMS-273
DLD-1 = test system: DLD-1
LXFL 529 = test system: LXFL 529
HOP-18 = test system: HOP-18
KM-20L2 = test system: KM-20L2
XF498 = test system: XF498

`O=C1C(c2c(O)[nH]c3ccc(S(=O)(=O)O)cc23)=Nc2ccccc21` was tested, and the GI50 (PC-3) was > 100 µM (inactive) and the GI50 (MCF7) was 53.5 µM (inactive).
With `C[As+](C)(c1ccc(Br)c([N+](=O)[O-])c1)c1ccc(Br)c([N+](=O)[O-])c1` the GI50 (PC-3) was > 100 µM (inactive) and the GI50 (MCF7) was > 100 µM (inactive).
With `CCCCCCCCCCCCCCC(O)C[N+](C)(CCO)CCO` (stereo not drawn) the GI50 (PC-3) was 1.72 µM (inactive) and the GI50 (MCF7) was 12.6 µM (inactive).
In the case of `O=C(CCC1CCCCN1)Nc1ccc2c(c1)C(=O)c1ccc(NC(=O)CCN3CCCCC3)cc1C2=O` (stereo not drawn), the GI50 (DMS-273) was 2.54 µM (inactive), the GI50 (DLD-1) was 1.61 µM (inactive) and the GI50 (PC-3) was > 10 µM (inactive). The GI50 (MCF7) was > 10 µM (inactive), the GI50 (LXFL 529) was 1.32 µM (inactive) and the GI50 (HOP-18) was 2.79 µM (inactive). For the same compound, the GI50 (KM-20L2) was 3.21 µM (inactive).
In the case of `O=C(O)c1cc2ccccc2c(/N=N/c2ccccc2)c1O`, the GI50 (PC-3) was 18.5 µM (inactive).
`Cc1c(C)c(S(=O)(=O)N(CCCCCCN)OCCCN)c(C)c2c1OC(C)(C)CC2` was tested, and the GI50 (PC-3) was 3.7 µM (inactive) and the GI50 (MCF7) was 9.59 µM (inactive).
For `COc1cc(/C=C2\NC(=O)C(Cc3cc(OC)c(OC)c(C)c3OC)N(C(C)=O)C2=O)c(OC)c(C)c1OC` (stereo not drawn), the GI50 (DMS-273) was > 100 µM (inactive), the GI50 (DLD-1) was > 100 µM (inactive) and the GI50 (LXFL 529) was 72.8 µM (inactive). The GI50 (HOP-18) was 28.6 µM (inactive) and the GI50 (KM-20L2) was > 100 µM (inactive).
With `Cc1nc(C)c(C(=O)NNC(N)=S)cc1C(=O)NNC(N)=S` the GI50 (PC-3) was > 100 µM (inactive) and the GI50 (MCF7) was > 100 µM (inactive).
With `CCOC(=O)CCC(C(=O)OCC)n1nnc2ccc(Nc3c(C)[n+]([O-])c4cc(Cl)ccc4[n+]3[O-])cc21` (stereo not drawn) the GI50 (PC-3) was 53.8 µM (inactive) and the GI50 (MCF7) was 17.9 µM (inactive).
With `CC(=O)Nc1ccc2c(c1)/C(=C\c1ccc([N+](C)(C)C)cc1)c1ccccc1-2` the GI50 (PC-3) was 19.9 µM (inactive) and the GI50 (MCF7) was 32 µM (inactive).
In the case of `C(=C\c1cc(-c2ccc3ccccc3n2)nc2ccc3ccccc3c12)/c1ccc2ccccc2n1`, the GI50 (PC-3) was > 100 µM (inactive) and the GI50 (MCF7) was > 100 µM (inactive).
With `Cc1cc(=O)c2c(O)cc3c(c2o1)CC=C(COC1OC(COC2OC(CO)C(O)C(O)C2O)C(O)C(O)C1O)CO3` (stereo not drawn) the GI50 (DMS-273) was > 100 µM (inactive), the GI50 (DLD-1) was > 100 µM (inactive) and the GI50 (LXFL 529) was > 100 µM (inactive). For the same compound, the GI50 (XF498) was > 100 µM (inactive) and the GI50 (KM-20L2) was > 100 µM (inactive).
For `O=C1C(Cl)C(c2cc3cc(Br)ccc3nc2Cl)N1c1ccc(Cl)cc1` (stereo not drawn), the GI50 (PC-3) was 5.69 µM (inactive) and the GI50 (MCF7) was 3.74 µM (inactive).
In the case of `O=C(NCc1ccc(Cl)cc1)c1cc2sccc2nc1C(F)(F)F`, the GI50 (PC-3) was 48 µM (inactive) and the GI50 (MCF7) was 61 µM (inactive).
For `O=C(Nc1ccc(Cl)cc1)c1cc(S(=O)(=O)Nc2n[nH]c(Nc3ccc4ccccc4c3)n2)c(SSc2cc(Cl)c(C(=O)Nc3ccc(Cl)cc3)cc2S(=O)(=O)Nc2n[nH]c(Nc3ccc4ccccc4c3)n2)cc1Cl`, the GI50 (PC-3) was 24.4 µM (inactive) and the GI50 (MCF7) was 25.8 µM (inactive).
For `Cc1ccccc1NC(=O)O/N=C(\Cl)C(C)C`, the GI50 (PC-3) was 17.1 µM (inactive) and the GI50 (MCF7) was 7.98 µM (inactive).
In the case of `CN(N=O)C(=O)NNC(=O)N(C)N=O`, the GI50 (PC-3) was 90.6 µM (inactive) and the GI50 (MCF7) was 35.6 µM (inactive).
With `CC#C[P+](c1ccccc1)(c1ccccc1)c1ccccc1` the GI50 (DMS-273) was 2.11 µM (inactive), the GI50 (DLD-1) was 2.34 µM (inactive) and the GI50 (LXFL 529) was 1.32 µM (inactive). For the same compound, the GI50 (HOP-18) was 11.7 µM (inactive), the GI50 (XF498) was 2.39 µM (inactive) and the GI50 (KM-20L2) was 6.71 µM (inactive).
With `Cc1ccc(-c2nnc(-c3nn(-c4ccccc4)c4nc5ccccc5nc34)o2)cc1` the GI50 (DMS-273) was 20.1 µM (inactive), the GI50 (DLD-1) was 16.9 µM (inactive) and the GI50 (LXFL 529) was 10.6 µM (inactive). The GI50 (HOP-18) was 27.9 µM (inactive), the GI50 (XF498) was 11.4 µM (inactive) and the GI50 (KM-20L2) was 42.4 µM (inactive).
For `Cc1nc2c(cc1OCc1ccccc1)C(=O)C1=C(C2=O)C2OC(=O)CC2OC1(C)C` (stereo not drawn), the GI50 (PC-3) was 0.56 µM (active) and the GI50 (MCF7) was 0.173 µM (active).
For `C=C(C(=O)OC)c1cc2ccccc2n1S(=O)(=O)c1ccccc1`, the GI50 (PC-3) was 1.96 µM (inactive) and the GI50 (MCF7) was 1.38 µM (inactive).
For `CCOP(=O)(Nc1ccccc1P(=O)(OCC)OCC)OCC`, the GI50 (PC-3) was > 100 µM (inactive) and the GI50 (MCF7) was > 100 µM (inactive).
In the case of `COc1ccc2c(ccc3c(COC(=O)NC(C)C)c(COC(=O)NC(C)C)n(C)c32)c1`, the GI50 (PC-3) was 11.1 µM (inactive) and the GI50 (MCF7) was 4.75 µM (inactive).
For `CCCCOC(=O)C(NC(C(=O)OCCCC)c1cc(C(C)(C)C)c(O)c(C(C)(C)C)c1)c1cc(C(C)(C)C)c(O)c(C(C)(C)C)c1` (stereo not drawn), the GI50 (PC-3) was > 100 µM (inactive) and the GI50 (MCF7) was > 100 µM (inactive).
`N#Cc1cn(-c2c3ccccc3nc3ccccc23)c(=O)[nH]c1=O` was tested, and the GI50 (DLD-1) was 15.5 µM (inactive), the GI50 (LXFL 529) was 9.04 µM (inactive) and the GI50 (XF498) was 11.6 µM (inactive). For the same compound, the GI50 (KM-20L2) was 7.38 µM (inactive).
For `C[C@H](N)C(=O)Nc1ccc(-c2nc3ccccc3s2)cc1`, the GI50 (PC-3) was 20.2 µM (inactive).
With `C=C(CN(C)C)C(=O)c1ccc(C(=O)C(=C)CN(C)C)cc1` the GI50 (DLD-1) was > 100 µM (inactive), the GI50 (LXFL 529) was > 100 µM (inactive) and the GI50 (HOP-18) was > 100 µM (inactive). For the same compound, the GI50 (XF498) was > 100 µM (inactive) and the GI50 (KM-20L2) was > 100 µM (inactive).
In the case of `O=C1N[C@H]2C(=O)c3c(Cl)sc(Cl)c3[C@H]2O1`, the GI50 (PC-3) was 14.2 µM (inactive) and the GI50 (MCF7) was 16.7 µM (inactive).
In the case of `CN1CCN(c2ccc3nc(-c4cc(O)c5c(nc(CO)n5C)c4O)[nH]c3n2)CC1`, the GI50 (PC-3) was 32.3 µM (inactive).
With `CC1(C)OC(=S)N(c2ccccc2)C12C=Cc1cc3ccccc3nc1S2` (stereo not drawn) the GI50 (DMS-273) was 97.3 µM (inactive), the GI50 (DLD-1) was 40.6 µM (inactive) and the GI50 (LXFL 529) was 44 µM (inactive). The GI50 (XF498) was > 100 µM (inactive) and the GI50 (KM-20L2) was > 100 µM (inactive).
For `NNC(=O)C(O)C(O)C(O)CO` (stereo not drawn), the GI50 (PC-3) was > 100 µM (inactive) and the GI50 (MCF7) was > 100 µM (inactive).
In the case of `COc1cc2c(c(OC)c1OC)C(=O)[C@@H]1[C@H]2N1C(=O)NCCCl`, the GI50 (PC-3) was 58.2 µM (inactive) and the GI50 (MCF7) was 27.6 µM (inactive).
